The results in this text go back to patent US11447472B2, “Polymorophs of 5-aza-4′-thio-2′-deoxycytidine” (Southern Research Institute, priority 2020, dated 2022).

Data set [1] in a line: Physical stability of solid forms under accelerated aging conditions (AAC, 25° C./60% RH, two days), HT-XRPD. The conditions noted are these: for AAC (form found after storage): Table 4, storage at 25° C., 60% relative humidity; for conversion after storage at 25° C., 60% relative humidity: two days.
Description: All solids were exposed to accelerated aging conditions (2 days at 25° C./60% RH) and re-analyzed by HT-XRPD.
Subsequently, the solids were placed at 25° C./60% RH for two days (AAC) and re-analyzed by XRPD.
Subsequently, all solids were exposed to accelerated aging conditions for two days (AAC, 25° C./60% RH) and re-analyzed by HT-XRPD.
Subsequently, all the solids were exposed to accelerated aging conditions (25° C./60% RH) for two days and re-analyzed by HT-XRPD.
All solids were then exposed to accelerated aging conditions (2 days at 25° C./60% RH) followed by HT-XRPD re-analysis.
Subsequently, all solids were exposed to accelerated aging conditions (2 days at 25° C./60% RH) and re-analyzed by HT-XRPD.
Subsequently, all solids were exposed to accelerated aging conditions (25° C./60% RH) for two days and then re-analyzed by HT-XRPD.
The nature of data set [2]: in vivo. The conditions noted are these: male, SD, rat, 2 mg/kg; for concentration at 0.25 h / concentration at 0.5 h / concentration at 1 h / concentration at 2 h / concentration at 4 h / concentration at 6 h / concentration at 8 h / concentration at 24 h: Concentration (plasma); for AUC(0-inf) / AUC(0-t) / Cmax / MRT inf / half-life / Tmax: po; for AUC(0-inf): AUCInf; for AUC(0-t): AUClast; for MRT inf: MRTInf_obs.

A short description of data set [3]: Dissolution rate (IDR) at pH 1.2, 6.5 and 5.0. The class given is physicochemical.
For data set [4] the following is noted: in vivo, 2 mg/kg.

Where two headings read alike, the source gives them in different places.

For the molecule `Nc1ncn([C@H]2C[C@H](O)[C@@H](CO)S2)c(=O)n1` [A + D2, 5-Aza-4′-thio-2′-deoxycytidine], the “AAC (form found after storage)” value in data set [1] (sample obtained by ECP from MeOH) was “A + L”.

As for `Nc1ncn([C@H]2C[C@H](O)[C@@H](CO)S2)c(=O)n1` [Form B, 5-Aza-4′-thio-2′-deoxycytidine], in data set [1] (in words), the physical stability entry is “physically unstable”. For the same molecule, the “conversion after storage at 25° C., 60% relative humidity” value (“conversion … 60% relative humidity” below) is given as “converted to Form A” in data set [1] (text) and “convert to Form A” in data set [1] (text, listed as B).

For `Nc1ncn([C@H]2C[C@H](O)[C@@H](CO)S2)c(=O)n1` [Form C2, 5-Aza-4′-thio-2′-deoxycytidine], the “conversion … 60% relative humidity” value in data set [1] (text, listed as C2) is recorded as “convert to Form A”.

As to `Nc1ncn([C@H]2C[C@H](O)[C@@H](CO)S2)c(=O)n1` [Form D2, 5-Aza-4′-thio-2′-deoxycytidine], in data set [1] (text, listed as D2), the “conversion … 60% relative humidity” value is recorded as “convert to Form A”.

Consider `Nc1ncn([C@H]2C[C@H](O)[C@@H](CO)S2)c(=O)n1` [Form E, 5-Aza-4′-thio-2′-deoxycytidine], for which, in data set [1] (sample obtained by ECP from DMA/TBME (80/20, v/v)), the “AAC (form found after storage)” value was “A + F”. Moreover, the “conversion … 60% relative humidity” value in data set [1] (text) is reported as “converts to Form A”; in data set [1] (text, listed as E), “convert to Form A”.

In data set [2] (Mean), `Nc1ncn([C@H]2C[C@H](O)[C@@H](CO)S2)c(=O)n1` [Form F, 5-Aza-4′-thio-2′-deoxycytidine] came in with a concentration at 0.25 h of 310 ng/mL, a concentration at 0.5 h of 768 ng/mL, a concentration at 1 h of 934 ng/mL and a concentration at 2 h of 755 ng/mL. In addition, in data set [2] (Mean), the concentration at 4 h is 457 ng/mL, the concentration at 6 h is 324 ng/mL, the concentration at 8 h was determined as 222 ng/mL and the concentration at 24 h is 5.43 ng/mL. In addition, in data set [2] (Mean), the AUC(0-inf) (as a rule, the area under the concentration-time curve extrapolated to infinity) came to 5820 ng·h/mL; the AUC(0-t) (as a rule, the area under the concentration-time curve up to a stated or last time point) was 5800 ng·h/mL; the peak level (Cmax) was 934 ng/mL; the MRT inf (as a rule, the average time that molecules of a dose stay in the body) was 4.86 h. In addition, in data set [2] (Mean), the Tmax (as a rule, the time from dosing to the highest level) came to 1 h. In data set [2] (individual rat), the concentration at 0.25 h stood at 225 ng/mL, the concentration at 0.5 h was 755 ng/mL, the concentration at 1 h is 886 ng/mL and the concentration at 2 h was 746 ng/mL. In addition, in data set [2] (individual rat), the concentration at 4 h is 536 ng/mL, the concentration at 6 h is 362 ng/mL, the concentration at 8 h stood at 245 ng/mL and the concentration at 24 h is 7.04 ng/mL. For the same molecule, in data set [2] (individual rat), the AUC(0-inf) stood at 6210 ng·h/mL; the AUC(0-t) came out at 6180 ng·h/mL; the Cmax – broadly, the peak of the concentration-time curve – stood at 886 ng/mL; the MRT inf was found to be 5.09 h. Further, the Tmax in data set [2] (individual rat) was 1 h. Besides, the half-life (as a rule, the time in which the quantity being followed falls by half) in data set [2] (T1/2, Mean) was 3 h. Besides, the half-life in data set [2] (T1/2, individual rat) is 3.15 h. For the same molecule, the IDR in data set [3] (FaSSIF, pH 6.5) is on record as 2.7 ± 0.05 mg/mL/Cm^2/min. Further, in data set [3] (FeSSIF, pH 5.0), the IDR was found to be 6.0 ± 0.70 mg/mL/Cm^2/min. The same molecule came in with an IDR in data set [3] (SGF, pH 1.2) of 7.0 ± 1.26 mg/mL/Cm^2/min. Further, the “Concentration (plasma), individual rat” value in data set [4] (male, SD, 0.25 h) turned out to be 394 ng/mL. Also, in data set [4] (male, SD, 0.5 h), the “Concentration (plasma), individual rat” value is given as 780 ng/mL. Besides, the “Concentration (plasma), individual rat” value in data set [4] (male, SD, 1 h) turned out to be 982 ng/mL. Also, in data set [4] (male, SD, 2 h), the “Concentration (plasma), individual rat” value turned out to be 764 ng/mL. For the same molecule, in data set [4] (male, SD, 4 h), the “Concentration (plasma), individual rat” value is on record as 377 ng/mL. The “Concentration (plasma), individual rat” value in data set [4] (male, SD, 6 h) is given as 285 ng/mL. In data set [4] (male, SD, 8 h), the “Concentration (plasma), individual rat” value worked out at 199 ng/mL. Moreover, the “Concentration (plasma), individual rat” value in data set [4] (male, SD, 24 h) is recorded as 3.81 ng/mL. In data set [4] (male, SD, po), the “AUCInf, individual rat” value amounted to 5435 ng·h/mL; the “AUClast, individual rat” value was 5419 ng·h/mL; the “Cmax, individual rat” value was 982 ng/mL; the “MRTInf_obs, individual rat” value is 4.63 h. Moreover, the “T1/2, individual rat” value in data set [4] (male, SD, po) came to 2.86 h. Further, in data set [4] (male, SD, rat), the “AUC values higher than SM” value is “about 30%”; the “AUC_%Extrap_obs, Mean” value is recorded as 0.402%; the AUClast/D, Mean is 2900 ng·h/mL per mg/kg. Besides, the “Cmax value relative to SM” value in data set [4] (rat) is given as “about 1.4 times”.

`Nc1ncn([C@H]2C[C@H](O)[C@@H](CO)S2)c(=O)n1` [Form G1, 5-Aza-4′-thio-2′-deoxycytidine]: the “conversion … 60% relative humidity” value in data set [1] (text) is “convert to Form A”; in data set [1] (text, listed as G1) it was “convert to Form A”.

For the molecule `Nc1ncn([C@H]2C[C@H](O)[C@@H](CO)S2)c(=O)n1` [Form G2, 5-Aza-4′-thio-2′-deoxycytidine], the “conversion … 60% relative humidity” value in data set [1] (text) is “convert to Form A”; in data set [1] (text, listed as G2) it was “convert to Form A”.

As for `Nc1ncn([C@H]2C[C@H](O)[C@@H](CO)S2)c(=O)n1` [Form H, 5-Aza-4′-thio-2′-deoxycytidine], the “AAC (form found after storage)” value in data set [1] (sample from the method/solvent of that table row) is listed as “F + H”. For the same molecule, the “conversion … 60% relative humidity” value in data set [1] was “convert to Form A”. Besides, the “conversion of the form” value is “converted to Form F” in data set [1] (when obtained from NMP) and “converted to Form A” in data set [1] (when obtained from other solvents).

Turning to `Nc1ncn([C@H]2C[C@H](O)[C@@H](CO)S2)c(=O)n1` [Form I, 5-Aza-4′-thio-2′-deoxycytidine], the “conversion … 60% relative humidity” value in data set [1] (text) is on record as “converts to Form A”; in data set [1] (text, listed as I) it was “convert to Form A”.

`Nc1ncn([C@H]2C[C@H](O)[C@@H](CO)S2)c(=O)n1` [Form J, 5-Aza-4′-thio-2′-deoxycytidine]: the “conversion … 60% relative humidity” value in data set [1] (text) is “converts to Form A”; in data set [1] (text, listed as J), “convert to Form A”.

As for `Nc1ncn([C@H]2C[C@H](O)[C@@H](CO)S2)c(=O)n1` [Form K, 5-Aza-4′-thio-2′-deoxycytidine], the “conversion … 60% relative humidity” value in data set [1] (text) is recorded as “converted to Form F”; in data set [1] (text, listed as K) it was “convert to Form A”.
